9 molecules from US9623014B2 (Entasis Therapeutics Limited, priority 2012, dated 2017) can be followed below.

The structures appear in SMILES notation. Where a name gives a salt, the structure may show the parent alone.

In assay [1] the test system is S. aureus (MRSA). The experiment in a line: MIC, broth microdilution (CLSI). It is filed as cell-based, Staphylococcus aureus. The following applies: compound alone; for MIC: Staphylococcus aureus, MRSA. On the procedure:
(§1) Minimum Inhibitory Concentrations (MICs) were determined by the broth microdilution method in accordance with the Clinical and Laboratory Standards Institute (CLSI) guidelines. Clinical Laboratory Standards Institute: Methods for Dilution Antimicrobial Susceptability Tests for Bacteria That Grow Aerobically (8th Ed. (2009)) M07-A8. In brief, organism suspensions were adjusted to a 0.5 McFarland standard and further diluted to yield a final inoculum between 3×10^5 and 7×10^5 colony-forming units (CFU)/mL. Bacterial inocula were made in sterile, cation adjusted Mueller-Hinton Broth (Beckton Dickinson) for either Escherichia coli, Klebsiella pneumoniae, or Pseudomonas aeruginosa. Haemophilus influenzae bacterial inocula were made in sterile, cation adjusted Mueller-Hinton Broth (Beckton Dickinson) containing 0.5% yeast extract (Beckton Dickinson) plus 15 μg/ml Bovine Hematin (Sigma) and 15 μg/ml β-nicotinamide adenine dinucleotide (Sigma). Bacterial inocula were made in sterile, cation adjusted Mueller-Hinton Broth (Beckton Dickinson) for Staphylococcus aureus or sterile, cation adjusted Mueller-Hinton Broth containing 2.5% lysed horse blood (Hema Resource & Supply Inc.) for Streptococcus pneumoniae and Streptococcus pyogenes. An inoculum volume of 100 uL was added to wells (using a Tecan EVO robot) containing 2 uL of DMSO containing 2-fold serial dilutions of drug. […] All inoculated microdilution trays were incubated in ambient air at 35° C. for 18-24 hours. Following incubation, the lowest concentration of the drug that prevented visible growth as read at OD600 nm was recorded as the MIC. Performance of the assay was monitored by the use of laboratory quality-control strains and commercially available control compounds with defined MIC spectrums, in accordance with CLSI guidelines.

The test system of assay [2] is S. aureus (MSSA). The experiment in a line: MIC, broth microdilution (CLSI). Format: cell-based, Staphylococcus aureus. Particulars: compound alone; for MIC: Staphylococcus aureus, MSSA. On the procedure:
as §1

The test system of assay [3] is Klebsiella pneumoniae. Kind of assay: MIC, broth microdilution (CLSI). It is filed as cell-based. Particulars: compound alone; for MIC: Klebsiella pneumoniae, read-out: MIC K. pneumon. On the procedure: as §1
(In general: In broth dilution the organism is exposed to a series of concentrations in liquid medium.)

The subject of assay [4] is Streptococcus pneumoniae. The experiment in a line: MIC, broth microdilution (CLSI). Particulars: compound alone; for MIC: Streptococcus pneumoniae, read-out: MIC S. pneumon. Format: cell-based. As for the experimental part: as §1
For assay [5], the system named is Streptococcus pyogenes. The experiment in a line: MIC, broth microdilution (CLSI). Format: cell-based. Particulars: compound alone; for MIC: Streptococcus pyogenes, read-out: MIC S. pyogenes. As for the experimental part: as §1
In assay [6] the test system is Haemophilus influenzae. The experiment in a line: MIC, broth microdilution (CLSI). Particulars: compound alone; for MIC: Haemophilus influenzae, read-out: MIC H. influenzae. Format: cell-based. As for the experimental part: as §1
Assay [7] concerns Escherichia coli. Kind of assay: MIC, broth microdilution (CLSI). The following applies: compound alone; for MIC: Escherichia coli. Format: cell-based. As for the experimental part: as §1
Assay [8] concerns Pseudomonas aeruginosa. The experiment in a line: MIC, broth microdilution (CLSI). It is filed as cell-based. Particulars: compound alone; for MIC: Pseudomonas aeruginosa, read-out: MIC P. aeruginosa. As for the experimental part: as §1
For assay [9], the system named is Pseudomonas aeruginosa AmpC (first AmpC column). Kind of assay: MIC alone against β-lactamase producing strain. It is filed as cell-based. The following applies: substance alone, column 2. As for the experimental part:
as §1

In assay [10] the test system is Pseudomonas aeruginosa AmpC (second AmpC column). Kind of assay: MIC alone against β-lactamase producing strain. It is filed as cell-based. Particulars: substance alone, column 4. As for the experimental part:
as §1

In assay [11] the test system is Klebsiella pneumoniae KPC2. Kind of assay: MIC alone against β-lactamase producing strain. It is filed as cell-based. The following applies: substance alone; for MIC: Klebsiella pneumoniae, KPC2. As for the experimental part: as §1
Assay [12] relates to Pseudomonas aeruginosa PER-1, OXA-10. The experiment in a line: MIC alone against β-lactamase producing strain. Format: cell-based. Particulars: substance alone; for MIC: Pseudomonas aeruginosa. On the procedure:
as §1

The test system of assay [13] is Klebsiella pneumoniae KPC2. Kind of assay: Synergy with β-lactams (MIC of β-lactam at fixed inhibitor concentration). The following applies: MIC of ceftazidime + inhibitor at fixed 4 ug/ml. It is filed as cell-based. As for the experimental part:
(§2) Synergy with β-lactams was assessed against several organisms producing a variety of β-lactamases belonging to different classes. Bush & Jacoby, Updated Functional Classification of β-Lactamases, Antimicrobial Agents and Chemotherapy, 54:969-76 (2010). In the assays, growth inhibitory activity (MIC) was measured using either two-fold dilutions of the partner β-lactam at a fixed concentration of compounds of formula (I). Compounds were prepared in DMSO, and MIC determinations using the compound of formula (I)/β-lactam combinations were done according to the CLSI guidelines. Clinical Laboratory Standards Institute: Methods for Dilution Antimicrobial Susceptability Tests for Bacteria That Grow Aerobically (8th Ed. (2009)) M07-A8. Synergy was defined as a four-fold or more reduction in the MIC of the β-lactam in the presence of the compound of formula (I), compared to the β-lactam alone.

Assay [14] relates to Pseudomonas aeruginosa PER-1, OXA-10. Described as above. It is filed as cell-based. The following applies: MIC of ceftazidime + inhibitor at fixed 4 ug/ml. On the procedure: as §2

As for `CC1=C[C@@H](C(=O)NCCN)N2C[C@@H]1N(OS(=O)(=O)O)C2=O` [Example 6, (2S,5R)-2-(2-aminoethylcarbamoyl)-4-methyl-7-oxo-1,6-diazabicyclo[3.2.1]oct-3-en-6-yl hydrogen sulfate], the MIC in assay [1] was above 200 µg/mL; in [2] it was 200 µg/mL; in assay [3] it was above 200 µg/mL; in [4], 25 µg/mL; in assay [5], 25 µg/mL; in assay [6], above 200 µg/mL. For the same molecule, the MIC in assay [7] was above 200 µg/mL; in assay [8], 25 µg/mL; in assay [9], 16 µg/mL; in assay [10], 16 µg/mL; in assay [11], 0.25 µg/mL; in assay [12], 16 µg/mL.
Regarding `COCC1=C[C@@H](COC)N2C[C@@H]1N(OS(=O)(=O)[O-])C2=O.[Na+]` [Example 13, (2S,5R)-2,4-bis(methoxymethyl)-7-oxo-1,6-diazabicyclo[3.2.1]oct-3-en-6-yl sulfate Sodium salt], the MIC was above 200 µg/mL in assay [1]; above 200 µg/mL in [2]; above 200 µg/mL in assay [3]; 50 µg/mL in assay [4]; 100 µg/mL in assay [5]; 200 µg/mL in assay [6]. Moreover, the MIC in assay [7] is above 200 µg/mL; in [8], above 200 µg/mL; in assay [9] it was above 16 µg/mL; in assay [10], above 16 µg/mL; in [11], above 16 µg/mL; in assay [12], above 16 µg/mL.
In the case of `CC(C)C1=C[C@@H](C(N)=O)N2C[C@@H]1N(OS(=O)(=O)O)C2=O.[Na]` [Example 4, (2S,5R)-2-carbamoyl-4-isopropyl-7-oxo-1,6-diazabicyclo[3.2.1]oct-3-en-6-yl hydrogen sulfate sodium salt], the MIC in assay [1] is above 200 µg/mL; in assay [3], above 200 µg/mL; in [4], 200 µg/mL; in [5] it was 50 µg/mL; in assay [6], above 200 µg/mL; in assay [7], above 200 µg/mL. Also, the MIC is above 200 µg/mL in assay [8]; above 64 µg/mL in [9]; above 64 µg/mL in [10]; above 64 µg/mL in [11]; above 64 µg/mL in assay [12].
For `CC1=C[C@@H](C(N)=O)N2C[C@@H]1N(OS(=O)(=O)O)C2=O.[Na]` [Example 1, (2S,5R)-2-carbamoyl-4-methyl-7-oxo-1,6-diazabicyclo[3.2.1]oct-3-en-6-yl hydrogen sulfate sodium salt], the MIC in [1] was above 200 µg/mL; in assay [2], 25 µg/mL; in [3], 50 µg/mL; in [4], 6.25 µg/mL; in assay [5], 3.13 µg/mL; in [7], 50 µg/mL. Also, the MIC in [8] is 200 µg/mL; in assay [9] it was 64 µg/mL; in [10] it was above 64 µg/mL; in assay [11] it was 8 µg/mL; in assay [12], above 64 µg/mL.
For the molecule `CC1=C[C@@H](CO)N2C[C@@H]1N(OS(=O)(=O)[O-])C2=O.[Na+]` [Example 16, (2S,5R)-2-(hydroxymethyl)-4-methyl-7-oxo-1,6-diazabicyclo[3.2.1]oct-3-en-6-yl hydrogen sulfate Sodium Salt], the MIC in [1] is above 200 µg/mL; in [2], 100 µg/mL; in [3] it was 100 µg/mL; in assay [4], 50 µg/mL; in assay [5], 50 µg/mL; in [6] it was 50 µg/mL. The MIC in [7] is 100 µg/mL; in [8] it was above 200 µg/mL; in assay [9], above 16 µg/mL; in [10], above 16 µg/mL; in assay [11] it was 8 µg/mL; in assay [12], above 16 µg/mL.
For the molecule `CC(C)C1=C[C@@H]2CN(C(=O)N2OS(=O)(=O)[O-])[C@@H]1C(N)=O.[Na+]` [Example 11], in assay [1], the “MIC S. aureus (MRSA)” value is above 200 µg/mL. Moreover, the “MIC S. aureus (MSSA)” value in [2] came to 100 µg/mL. Also, the “MIC K. pneumon.” value in assay [3] was above 200 µg/mL. The “MIC S. pneumon.” value in [4] was found to be 25 µg/mL. The “MIC S. pyogenes” value in assay [5] is 25 µg/mL. Also, the “MIC H. influenzae” value in assay [6] was above 200 µg/mL. Further, the “MIC E. coli” value in assay [7] is above 200 µg/mL. Moreover, the “MIC P. aeruginosa” value in [8] was above 200 µg/mL. In addition, the “MIC Klebsiella pneumoniae KPC2” value was above 16 µg/mL in assay [11] and 1 µM in assay [13]. The “MIC Pseudomonas aeruginosa PER-1, OXA-10” value in assay [12] was above 16 µg/mL; in assay [14] it was 16 µM.
Take `CC(=O)NCCC1=C[C@@H](C(N)=O)N2C[C@@H]1N(OS(=O)(=O)[O-])C2=O.[Na+]` [Ex. 25, (2S,5R)-4-(2-acetamidoethyl)-2-carbamol-7-oxo-1,6-diazabicyclo[3.2.1]oct-3-en-6-yl sulfate sodium salt]: the “MIC Klebsiella pneumoniae KPC2” value in assay [13] is above 8 µM.
Consider `COC[C@@H]1C=C(C(N)=O)[C@@H]2CN1C(=O)N2OS(=O)(=O)O` [Example 12, (2S,5R)-4-carbamoyl-2-(methoxymethyl)-7-oxo-1,6-diazabicyclo[3.2.1]oct-3-en-6-yl hydrogen sulfate, monosodium salt], for which the MIC in assay [1] was above 200 µg/mL; in assay [3] it was 50 µg/mL; in assay [4], 25 µg/mL; in assay [5] it was 25 µg/mL; in assay [6], 100 µg/mL; in assay [7] it was 100 µg/mL. Also, the MIC is above 200 µg/mL in assay [8]; above 64 µg/mL in assay [9]; above 64 µg/mL in assay [10]; 64 µg/mL in [11]; above 64 µg/mL in assay [12].
Consider `CC1=C[C@@H](C#N)N2C[C@@H]1N(OS(=O)(=O)O)C2=O.[Na]` [Example 2, (2S,5R)-2-cyano-4-methyl-7-oxo-1,6-diazabicyclo[3.2.1]oct-3-en-6-yl hydrogen sulfate sodium salt], for which the MIC in assay [1] turned out to be 100 µg/mL; in assay [2], 100 µg/mL; in [3], 100 µg/mL; in assay [4], 25 µg/mL; in assay [5], 3.13 µg/mL; in assay [6], 12.5 µg/mL. The MIC is 100 µg/mL in assay [7]; above 200 µg/mL in assay [8]; above 64 µg/mL in [9]; above 64 µg/mL in assay [10]; 64 µg/mL in assay [11]; above 64 µg/mL in [12].
